Source: the NIST ThermoML archive (doi:10.1021/acs.jced.5b00049)

Assay: xn = mol fraction of the nth substance listed
Conditions: Liquid

CCCCCCCCCCCCCC [tetradecane] + O=C=O
Conditions | mass density [kg/m3]
312.99 K, 19070 kPa, x2 = 0.7534 | 819.95
313 K, 15040 kPa, x2 = 0.7534 | 811.66
313.01 K, 17010 kPa, x2 = 0.7534 | 815.79
313.01 K, 18060 kPa, x2 = 0.7534 | 817.99
313.05 K, 10040 kPa, x2 = 0.7534 | 799.71
313.05 K, 11940 kPa, x2 = 0.7534 | 804.49
313.07 K, 10010 kPa, x2 = 0.2469 | 761.87
313.08 K, 12050 kPa, x2 = 0.2469 | 763.39
313.08 K, 13990 kPa, x2 = 0.2469 | 764.87
313.08 K, 16020 kPa, x2 = 0.2469 | 766.36
313.09 K, 18000 kPa, x2 = 0.2469 | 767.75
313.11 K, 19000 kPa, x2 = 0.2469 | 768.47
313.12 K, 13940 kPa, x2 = 0.7534 | 809.04
313.12 K, 19060 kPa, x2 = 0.8773 | 833.41
313.13 K, 16010 kPa, x2 = 0.7534 | 813.59
313.14 K, 13040 kPa, x2 = 0.7534 | 806.93
313.16 K, 11930 kPa, x2 = 0.5241 | 778.74
313.16 K, 19060 kPa, x2 = 0.5241 | 785.72
313.17 K, 12990 kPa, x2 = 0.8773 | 810.26
313.17 K, 13930 kPa, x2 = 0.5241 | 780.74
313.17 K, 14050 kPa, x2 = 0.8773 | 813.95
313.18 K, 16020 kPa, x2 = 0.8773 | 822.71
313.18 K, 17010 kPa, x2 = 0.8773 | 826.33
313.19 K, 9970 kPa, x2 = 0.8773 | 799.39
313.19 K, 10110 kPa, x2 = 0.5241 | 776.82
313.19 K, 18040 kPa, x2 = 0.8773 | 829.7
313.2 K, 11990 kPa, x2 = 0.8773 | 806.52
313.21 K, 18060 kPa, x2 = 0.5241 | 784.76
313.23 K, 15010 kPa, x2 = 0.8773 | 818.7
313.35 K, 16050 kPa, x2 = 0.5241 | 782.84
323.11 K, 10980 kPa, x2 = 0.8773 | 783.24
323.11 K, 14020 kPa, x2 = 0.2469 | 757.81
323.11 K, 19020 kPa, x2 = 0.8773 | 809.81
323.12 K, 16020 kPa, x2 = 0.2469 | 759.35
323.14 K, 10120 kPa, x2 = 0.2469 | 754.69
323.14 K, 12060 kPa, x2 = 0.2469 | 756.22
323.14 K, 13020 kPa, x2 = 0.8773 | 788.73
323.14 K, 14050 kPa, x2 = 0.8773 | 791.99
323.14 K, 16040 kPa, x2 = 0.8773 | 799.2
323.14 K, 17040 kPa, x2 = 0.8773 | 801.18
323.14 K, 18060 kPa, x2 = 0.8773 | 805.9
323.14 K, 18980 kPa, x2 = 0.2469 | 761.61
323.15 K, 10070 kPa, x2 = 0.7534 | 782.23
323.15 K, 12030 kPa, x2 = 0.7534 | 787.2
323.15 K, 12050 kPa, x2 = 0.8773 | 786.07
323.15 K, 13000 kPa, x2 = 0.7534 | 789.82
323.15 K, 14020 kPa, x2 = 0.7534 | 791.84
323.15 K, 15060 kPa, x2 = 0.7534 | 794.75
323.15 K, 16040 kPa, x2 = 0.7534 | 796.67
323.15 K, 17010 kPa, x2 = 0.7534 | 799.28
323.15 K, 18070 kPa, x2 = 0.7534 | 801.5
323.15 K, 19020 kPa, x2 = 0.7534 | 803.65
323.16 K, 15050 kPa, x2 = 0.8773 | 795.16
323.19 K, 17960 kPa, x2 = 0.2469 | 760.81
323.21 K, 16080 kPa, x2 = 0.5241 | 773.72
323.22 K, 18050 kPa, x2 = 0.5241 | 775.72
323.22 K, 19040 kPa, x2 = 0.5241 | 776.7
323.23 K, 10030 kPa, x2 = 0.5241 | 767.22
323.23 K, 12040 kPa, x2 = 0.5241 | 769.42
323.23 K, 13980 kPa, x2 = 0.5241 | 771.51
333.07 K, 10050 kPa, x2 = 0.7534 | 764.82
333.07 K, 14030 kPa, x2 = 0.7534 | 774.55
333.07 K, 17060 kPa, x2 = 0.7534 | 782.56
333.07 K, 18060 kPa, x2 = 0.7534 | 784.44
333.09 K, 10100 kPa, x2 = 0.5241 | 757.94
333.11 K, 13040 kPa, x2 = 0.7534 | 771.85
333.11 K, 16040 kPa, x2 = 0.2469 | 752.33
333.11 K, 18060 kPa, x2 = 0.5241 | 766.9
333.11 K, 18060 kPa, x2 = 0.8773 | 785.49
333.12 K, 15020 kPa, x2 = 0.7534 | 777.38
333.12 K, 16040 kPa, x2 = 0.7534 | 779.31
333.13 K, 10010 kPa, x2 = 0.2469 | 747.3
333.13 K, 13970 kPa, x2 = 0.2469 | 750.65
333.13 K, 19050 kPa, x2 = 0.8773 | 788.14
333.13 K, 19080 kPa, x2 = 0.5241 | 767.96
333.14 K, 16050 kPa, x2 = 0.8773 | 779.75
333.14 K, 17040 kPa, x2 = 0.8773 | 782.59
333.15 K, 11930 kPa, x2 = 0.5241 | 760.02
333.15 K, 12060 kPa, x2 = 0.2469 | 749.05
333.15 K, 15990 kPa, x2 = 0.5241 | 764.66
333.15 K, 17980 kPa, x2 = 0.2469 | 753.84
333.16 K, 18980 kPa, x2 = 0.2469 | 754.7
333.17 K, 12050 kPa, x2 = 0.7534 | 769.75
333.17 K, 19050 kPa, x2 = 0.7534 | 786.81
333.18 K, 14030 kPa, x2 = 0.8773 | 774.07
333.19 K, 13020 kPa, x2 = 0.8773 | 771.46
333.2 K, 13970 kPa, x2 = 0.5241 | 762.35
333.22 K, 15040 kPa, x2 = 0.8773 | 776.33
343.18 K, 13030 kPa, x2 = 0.7534 | 757.6
343.2 K, 14070 kPa, x2 = 0.7534 | 759.71
343.22 K, 10080 kPa, x2 = 0.5241 | 748.36
343.24 K, 18020 kPa, x2 = 0.2469 | 746.97
343.25 K, 10080 kPa, x2 = 0.2469 | 739.8
343.25 K, 12000 kPa, x2 = 0.2469 | 741.71
343.25 K, 13970 kPa, x2 = 0.5241 | 753.12
343.26 K, 11930 kPa, x2 = 0.5241 | 750.66
343.26 K, 17070 kPa, x2 = 0.8773 | 763.58
343.27 K, 16010 kPa, x2 = 0.2469 | 745.25
343.27 K, 19050 kPa, x2 = 0.2469 | 747.79
343.28 K, 16050 kPa, x2 = 0.8773 | 759.7
343.28 K, 18030 kPa, x2 = 0.7534 | 768.86
343.29 K, 11990 kPa, x2 = 0.7534 | 755.9
343.29 K, 15010 kPa, x2 = 0.8773 | 756.06
343.3 K, 18040 kPa, x2 = 0.8773 | 766.93
343.32 K, 15970 kPa, x2 = 0.7534 | 764.11
343.32 K, 19050 kPa, x2 = 0.8773 | 770.12
343.34 K, 14060 kPa, x2 = 0.2469 | 743.54
343.34 K, 16930 kPa, x2 = 0.7534 | 766.37
343.36 K, 18040 kPa, x2 = 0.5241 | 757.81
343.37 K, 15000 kPa, x2 = 0.7534 | 761.76
343.37 K, 15990 kPa, x2 = 0.5241 | 755.45
343.37 K, 19030 kPa, x2 = 0.7534 | 770.9
343.39 K, 19080 kPa, x2 = 0.5241 | 758.96
353.36 K, 9980 kPa, x2 = 0.5241 | 738.86
353.36 K, 12050 kPa, x2 = 0.7534 | 743.36
353.39 K, 11960 kPa, x2 = 0.5241 | 741.42
353.39 K, 17030 kPa, x2 = 0.7534 | 753.15
353.39 K, 18060 kPa, x2 = 0.5241 | 748.96
353.4 K, 18070 kPa, x2 = 0.2469 | 741.03
353.41 K, 13000 kPa, x2 = 0.7534 | 744.77
353.43 K, 11990 kPa, x2 = 0.2469 | 735.13
353.43 K, 14020 kPa, x2 = 0.5241 | 744.02
353.43 K, 16060 kPa, x2 = 0.5241 | 746.56
353.44 K, 19060 kPa, x2 = 0.5241 | 750.06
353.46 K, 15040 kPa, x2 = 0.7534 | 748.68
353.46 K, 15990 kPa, x2 = 0.7534 | 750.82
353.46 K, 18010 kPa, x2 = 0.8773 | 751.14
353.46 K, 18040 kPa, x2 = 0.7534 | 755.21
353.47 K, 14010 kPa, x2 = 0.7534 | 746.82
353.47 K, 19020 kPa, x2 = 0.2469 | 741.82
353.47 K, 19040 kPa, x2 = 0.8773 | 754.52
353.48 K, 9970 kPa, x2 = 0.2469 | 733.1
353.48 K, 14000 kPa, x2 = 0.2469 | 737.01
353.48 K, 17020 kPa, x2 = 0.8773 | 747.37
353.52 K, 16030 kPa, x2 = 0.2469 | 738.93
353.54 K, 18990 kPa, x2 = 0.7534 | 756.97
